In ChEMBL document CHEMBL5726780, “Fused tricyclic compounds as Raf kinase inhibitors” (2018):
pIC50: −log10 of the molar value.

Assay: Time-Resolved Fluorescence Energy Transfer Assay: Compounds disclosed herein were tested against B-Raf (V600E) (PV3849, from Invitrogen) or C-Raf (Y340D/Y341D) (PV3805, from Invitrogen) in a time-resolved fluorescence energy transfer assay. The assay was carried out in reactions (10 μL) containing 0.0625 nM B-Raf or 0.5 nM C-Raf, 25 mM Tris pH7.4, 10 mM MgCl2, 0.5 mM EGTA, 0.5 mM […], 5 mM beta-glycerophosphate, 0.01% Triton X-100, 2.5 mM DTT, 0.1% BSA, 0.1 mM ATP, 13.7 nM GST-tagged MEK1 (Full-length protein with K97R mutation, recombinant protein purified from bacterial expression system) and 0-5 μM compounds disclosed herein (final concentration of 1% DMSO). The enzyme was incubated with the compounds at room temperature for 60 minutes and the reactions were initiated by the addition of ATP and GST-MEK1. After incubating at room temperature for 60 minutes, an equal volume of stop buffer containing 25 mM Tris pH7.4, 400 mM KF, 50 mM EDTA, 0.01% BSA, 0.01% Triton X-100, 1 test of Eu3+ Cryptate-conjugated rabbit polyclonal antibody anti-Phospho MEK1/2 (Ser217/221) and 1 test of d2-conjugated mouse monoclonal antibody anti-glutathione S-transferase was added to stop the reactions. Plates were sealed and incubated at room temperature for 2 hours, and then the TR-FRET signals were read on BMG PHERAstar FS instrument.

Going from `O=C1CCc2c(Oc3ccc4c(c3)C3C(C4)C3C(=O)Nc3ccccc3S)ccnc2N1` (centres undefined) to `O=C1CCc2c(Oc3ccc4c(c3)C3C(O4)C3C(=O)OCC(=O)c3ccccc3)ccnc2N1` (centres undefined), the pIC50 rises from 8.26 to over 9.60.

Going from `CNC(=O)Nc1cc(Oc2ccc3c(c2)C2C(O3)C2c2nc3ccc(C(F)(F)F)cc3[nH]2)ccn1` (centres undefined) to `O=C1CCc2c(Oc3ccc4c(c3)C3C(O4)C3c3nc4ccc(Br)cc4[nH]3)ccnc2N1` (centres undefined), the pIC50 falls from 8.19 to 7.09 (1.10 log units). The first is the more potent here.
